Laboratory results reported in US11230526B1, “Cylcoalkenyl derivatives useful as agonists of the GPR120 and/or GPR40 receptors” (Janssen Pharmaceutica NV, priority 2018, dated 2022).

Key:
Type in all cases: cell-based
[1] = molecular target: T1, Human GPR120 short form (Homo sapiens, UniProt Q5NUL3); experiment: Human GPR120 calcium flux assay, Procedure Calcium B (4200 cells/well)
T1 construct: expressed in transfected cells
T1 sequence (Q5NUL3 1-361): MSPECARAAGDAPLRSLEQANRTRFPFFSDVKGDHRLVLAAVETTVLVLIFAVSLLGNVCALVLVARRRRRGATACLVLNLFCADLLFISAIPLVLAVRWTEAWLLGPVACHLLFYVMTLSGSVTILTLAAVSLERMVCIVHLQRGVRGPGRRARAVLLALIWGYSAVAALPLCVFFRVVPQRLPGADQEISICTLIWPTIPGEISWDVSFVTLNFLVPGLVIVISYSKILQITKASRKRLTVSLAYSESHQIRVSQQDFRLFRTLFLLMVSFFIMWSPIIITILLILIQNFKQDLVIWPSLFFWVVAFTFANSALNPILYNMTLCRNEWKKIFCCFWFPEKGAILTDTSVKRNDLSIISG
Procedure, shortened: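 Agonist EC50 came from a four-parameter fit of RFU (Fmax−Fmin) read over 300 s on FLIPR. Cells were HEK293 stably transfected with human GPR120 (NM_001195755.1) at 4200 per well, serum-starved 1 h and loaded with Fluo-4 NW dye with probenecid before ligand addition.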

[2] = molecular target: T2, long form of human GPR120 (Homo sapiens, UniProt Q5NUL3); experiment: Human GPR120 DiscoveRx PathHunter Beta-Arrestin assay, Procedure β-arrestin A
T2 construct: host or cells: PathHunter CHO-K1 GPR120 β-Arrestin Cell Line
T2 sequence (Q5NUL3 1-377 isoform Q5NUL3-1): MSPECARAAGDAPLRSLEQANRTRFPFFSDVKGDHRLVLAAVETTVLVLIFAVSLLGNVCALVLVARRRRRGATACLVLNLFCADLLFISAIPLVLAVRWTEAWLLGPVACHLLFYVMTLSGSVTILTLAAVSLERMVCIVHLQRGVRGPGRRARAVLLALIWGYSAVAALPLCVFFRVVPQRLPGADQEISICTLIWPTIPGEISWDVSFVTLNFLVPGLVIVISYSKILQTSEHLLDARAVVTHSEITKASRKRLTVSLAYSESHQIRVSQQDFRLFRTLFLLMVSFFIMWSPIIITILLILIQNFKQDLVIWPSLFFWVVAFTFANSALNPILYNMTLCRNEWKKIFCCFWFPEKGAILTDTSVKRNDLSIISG
T2 sequence (P32121 whole entry partner): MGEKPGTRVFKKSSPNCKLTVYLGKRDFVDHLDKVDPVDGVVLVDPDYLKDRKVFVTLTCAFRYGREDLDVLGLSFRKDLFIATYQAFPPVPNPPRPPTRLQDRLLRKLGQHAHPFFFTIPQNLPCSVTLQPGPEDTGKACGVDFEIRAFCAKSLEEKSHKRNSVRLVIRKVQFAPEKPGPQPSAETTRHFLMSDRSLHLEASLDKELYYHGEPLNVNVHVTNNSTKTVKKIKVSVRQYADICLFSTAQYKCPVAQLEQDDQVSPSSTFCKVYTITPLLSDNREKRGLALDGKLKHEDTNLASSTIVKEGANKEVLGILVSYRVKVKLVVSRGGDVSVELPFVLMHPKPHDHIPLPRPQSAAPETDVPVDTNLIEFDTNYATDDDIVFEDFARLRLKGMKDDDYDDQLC
Description: Human GPR120 DiscoveRx PathHunter® Beta-Arrestin Assay Assay Principle:
The binding of an agonist (medium/long chain fatty acids or small molecule agonists) to the G-protein-coupled receptor GPR120 activates phospholipase C, leading to release of intracellular Ca^+2 through the generation of inositol 1,4,5-trisphosphate (InsP3 or IP3). GPR120 activation can also trigger intracellular signaling via recruitment of Beta-Arrestin. In the present method, agonist-induced activation of the human GPR120 receptor is monitored through the use of PathHunter® CHO-K1 GPR120 Beta-Arrestin Cell Line engineered by DiscoveRx, as detailed below. The cell lines are designed to co-express both the ProLink/Enzyme Donor (PK)-tagged GPCR and the Enzyme […] (EA)-tagged Beta-Arrestin fusion proteins. Upon GPR120 receptor stimulation/activation, the EA-tagged Beta-Arrestin portion is translocated to the tagged receptor, where the two enzyme fragments are brought within close proximity. Under these conditions, these fragments can interact and form an active Beta-gal enzyme complex through Enzyme Fragment Complementation (EFC). This active Beta-gal complex can enzymatically hydrolyse the substrate to produce a detectable light signal; therefore, activation as a function of agonist concentration can be expressed as an EC50 value to determine relative compound activities. This in vitro assay therefore serves to assess compound agonist activity of the GPR120.
In Procedure β-arrestin A, the cell used were PathHunter® CHO-K1 GPR120 β-Arrestin Cell Line, expressing the long form of human GPR120 (Genbank accession number NM_181745), with 3000 cells per well.
The selected CHO-K1 GPR120 β-Arrestin cells were cultured in Ham's F12 media supplemented with 10% fetal bovine serum (FBS), 1% Glutamine, 1×p/s, 800 μg/mL G418 and 300 μg/mL Hygromycin B (for selection). Cell stocks were maintained and grown in a sub-confluent state using standard cell culture procedures. The day before the experiment, the cells were harvested with non-enzymatic cell dissociation buffer and re-suspended in complete growth media at the desired concentration. A Corning 384-plate was then seeded with the proper number of cells in a volume of 25 μL, per well. The seeded plates were incubated overnight at 37° C.
On the day of the experiment, the Assay Buffer containing (a) HBSS with Ca^++ and Mg^++, (b) 20 mM HEPES, and (c) 0.1% BSA stabilizer (pH 7.4) was prepared. The growth medium was gently removed from the cell plates and 20 μL of Assay Buffer added to each well. The plate was then incubated at 37° C. for 60 min. Test compounds were serially diluted in Assay Buffer to desired concentrations (more particularly to one or more of the following μM concentrations: 25, 12.5, 6.25, 3.12, 1.56, 0.78, 0.39, 0.19, 0.10, 0.05, 0.02, 0.01). Five μL of compound dilution was then added to each well and the plate incubated at 37° C. for 90 min. The detection reagents were prepared according to the manufacture's instruction. Twelve μL of the detection reagents were added to each well and the plate incubated at room temperature for 60 min.
The plates were read on an EnVision instrument, using Protocol name: Luminescence, Plate type: 384 Costar, Measurement height: 3 mm, Measurement time: 1 s, Aperture: 384 Plate aperture. The % Activity relative to the positive control was calculated using the following equation:
The % Activity values were plotted versus the concentration of test compound and fitted to a sigmoidal dose-response curve with a Hill slope=1 (fixed value) using nonlinear regression with GraphPad Prism 5.0 to calculate the EC50 values. The Fitting Equation was: Y=Bottom+(Top-Bottom)/(1+10^((Log EC50−X)*HillSlope)), where X is the log of the concentration and Y is the response.

[3] = molecular target: T3, human GPR40 (Homo sapiens, UniProt O14842); experiment: GPR40 calcium flux assay, human GPR40; conditions: HEK293 cells stably expressing GPR40; table does not say human or rat
T3 construct: expressed in transfected cells
T3 sequence (O14842 whole entry): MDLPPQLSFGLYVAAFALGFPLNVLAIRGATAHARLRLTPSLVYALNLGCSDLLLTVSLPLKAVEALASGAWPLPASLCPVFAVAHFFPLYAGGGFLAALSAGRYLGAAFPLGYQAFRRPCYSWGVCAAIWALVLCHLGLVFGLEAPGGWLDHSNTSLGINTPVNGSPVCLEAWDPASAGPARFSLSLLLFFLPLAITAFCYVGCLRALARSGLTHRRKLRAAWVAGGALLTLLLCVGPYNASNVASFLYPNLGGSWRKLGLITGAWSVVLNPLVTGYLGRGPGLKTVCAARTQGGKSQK
Procedure, shortened: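 Cells preincubated 1 h at 37° C. in HBSS, 20 mM HEPES, 0.1% BSA, then Fluo 8 calcium dye 30 min at 37° C. and 15 min at room temperature.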

Row | EC50 [1] [µM] | EC50 [2] [µM] | EC50 [3] [µM] | Compound
1 | 0.042 | 0.032 | > 5 | Cc1ccc(C2=C(COc3ccc(CCC(=O)O)c(C)c3C)CC(F)(F)C2)cc1F [Compound 172, 3-[4-[[4,4-difluoro-2-(3-fluoro-4-methyl-phenyl)cyclopenten-1-yl]methoxy]-2,3-dimethyl-phenyl]Propanoic Acid]
2 | 0.049 | 0.04 | > 5 | Cc1c(CCC(=O)O)ccc(OCC2=C(c3ccc(F)cc3F)CC(F)(F)C2)c1C [Compound 173, 3-[4-[[2-(2,4-difluorophenyl)-4,4-difluoro-cyclopenten-1-yl]methoxy]-2,3-dimethyl-phenyl]Propanoic Acid]
3 | 0.031 | 0.289 | > 5 | Cc1cc(CCC(=O)O)ccc1OCC1=C(c2ccc(F)c(F)c2)CC(F)(F)C1 [Compound 179, 3-[4-[[2-(3,4-difluorophenyl)-4,4-difluoro-cyclopenten-1-yl]methoxy]-3-methyl-phenyl]Propanoic Acid]
4 | 0.026 | 0.078 | > 5 | Cc1cc(CCC(=O)O)ccc1OCC1=C(c2ccc(F)cc2)CC(F)(F)C1 [Compound 180, 3-[4-[[4,4-difluoro-2-(4-fluorophenyl)cyclopenten-1-yl]methoxy]-3-methyl-phenyl]Propanoic Acid]
5 | 0.032 | 0.104 | > 5 | Cc1cc(CCC(=O)O)ccc1OCC1=C(c2ccc(F)cc2F)CC(F)(F)C1 [Compound 182, 3-[4-[[2-(2,4-difluorophenyl)-4,4-difluoro-cyclopenten-1-yl]methoxy]-3-methyl-phenyl]Propanoic Acid]
6 | 0.051 | 0.185 | > 5 | O=C(O)CCc1cc(F)c(OCC2=C(c3ccc(F)cc3)CC(F)(F)C2)c(F)c1 [Compound 183, 3-[4-[[4,4-difluoro-2-(4-fluorophenyl)cyclopenten-1-yl]methoxy]-3,5-difluoro-phenyl]Propanoic Acid]
7 | 0.091 | 0.431 | > 5 | O=C(O)CCc1cc(F)c(OCC2=C(c3ccc(F)c(F)c3)CC(F)(F)C2)c(F)c1 [Compound 184, 3-[4-[[2-(3,4-difluorophenyl)-4,4-difluoro-cyclopenten-1-yl]methoxy]-3,5-difluoro-phenyl]Propanoic Acid]
8 | 0.36 | 1.44 | 3.44 | N#CC1CC(COc2c(F)cc(CCC(=O)O)cc2F)=C(c2ccc(Cl)cc2)C1 (stereo not drawn) [Compound 185, 3-[4-[[2-(4-chlorophenyl)-4-cyano-cyclopenten-1-yl]methoxy]-3,5-difluoro-phenyl]Propanoic Acid]
9 | 0.453 | 1.79 | 0.382 | O=C(O)CCc1ccc(OCC2=C(c3ccc(F)cc3)CC(F)C2)cc1C(F)(F)F (stereo not drawn) [Compound 186, 3-[4-[[4-fluoro-2-(4-fluorophenyl)cyclopenten-1-yl]methoxy]-2-(trifluoromethyl)phenyl]Propanoic Acid]
10 | 0.137 | 0.596 | 3.32 | COC1CC(COc2c(F)cc(CCC(=O)O)cc2F)=C(c2ccc(Cl)cc2)C1 (stereo not drawn) [Compound 187, 3-[4-[[2-(4-chlorophenyl)-4-methoxy-cyclopenten-1-yl]methoxy]-3,5-difluoro-phenyl]Propanoic Acid]
11 | 0.411 | 0.548 | 0.142 | O=C(O)CCc1ccc(OCC2=C(c3ccc(F)cc3)CC(F)(F)C2)cc1C(F)(F)F [Compound 188, 3-[4-[[4,4-difluoro-2-(4-fluorophenyl)cyclopenten-1-yl]methoxy]-2-(trifluoromethyl)phenyl]Propanoic Acid]
12 | 0.027 | 0.259 | > 5 | Cc1cc(CCC(=O)O)ccc1OCC1=C(c2cccc(F)c2)CC(F)(F)C1 [Compound 191, 3-[4-[[4,4-difluoro-2-(3-fluorophenyl)cyclopenten-1-yl]methoxy]-3-methyl-phenyl]Propanoic Acid]
13 | 0.03 | 0.133 | > 5 | Cc1cc(CCC(=O)O)ccc1OCC1=C(c2ccccc2)CC(F)(F)C1 [Compound 193, 3-[4-[(4,4-difluoro-2-phenyl-cyclopenten-1-yl)methoxy]-3-methyl-phenyl]Propanoic Acid]
14 | 0.21 | 0.369 | 1.47 | Cc1ncc(C2=C(COc3ccc(CCC(=O)O)cc3C)CC(F)(F)C2)s1 [Compound 199, 3-[4-[[4,4-difluoro-2-(2-methylthiazol-5-yl)cyclopenten-1-yl]methoxy]-3-methyl-phenyl]Propanoic Acid]
15 | 0.08 | 0.056 | > 5 | O=C(O)CCc1ccc(OCC2=C(c3ccc(F)cc3)CC(F)(F)C2)c(Cl)c1 [Compound 203, 3-[3-chloro-4-[[4,4-difluoro-2-(4-fluorophenyl)cyclopenten-1-yl]methoxy]phenyl]Propanoic Acid]
16 | 0.125 | 0.359 | > 5 | Cc1cc(CCC(=O)O)cc(F)c1OCC1=C(c2ccc(F)cc2)CC(F)(F)C1 [Compound 204, 3-[4-[[4,4-difluoro-2-(4-fluorophenyl)cyclopenten-1-yl]methoxy]-3-fluoro-5-methyl-phenyl]Propanoic Acid]
17 | 0.137 | 0.11 | > 5 | Cc1c(CCC(=O)O)ccc(OCC2=C(c3ccco3)CCC2)c1C [Compound 210, 3-[4-[[2-(2-furyl)cyclopenten-1-yl]methoxy]-2,3-dimethyl-phenyl]Propanoic Acid]
18 | 0.078 | 0.084 | > 5 | O=C(O)CCc1ccc(OCC2=C(c3ccc(F)cc3)CC(F)(F)C2)c(F)c1 [Compound 214, 3-[4-[[4,4-difluoro-2-(4-fluorophenyl)cyclopenten-1-yl]methoxy]-3-fluoro-phenyl]Propanoic Acid]
19 | 0.075 | 0.282 | > 5 | O=C(O)CCc1cc(F)c(OCC2=C(c3cccc(F)c3)CC(F)(F)C2)c(F)c1 [Compound 215, 3-[4-[[4,4-difluoro-2-(3-fluorophenyl)cyclopenten-1-yl]methoxy]-3,5-difluoro-phenyl]Propanoic Acid]
20 | 0.075 | 0.169 | > 5 | O=C(O)CCc1cc(F)c(OCC2=C(c3ccc(F)cc3F)CC(F)(F)C2)c(F)c1 [Compound 216, 3-[4-[[2-(2,4-difluorophenyl)-4,4-difluoro-cyclopenten-1-yl]methoxy]-3,5-difluoro-phenyl]Propanoic Acid]
